In US11999727B2 (Tango Therapeutics, Inc., priority 2020, dated 2024):
Where two headings read alike, the source gives them in different places.

Tests used:
[1] = system: HAP1 MTAP-intact cell line; experiment: SDMA in-cell western assay, HAP1 MTAP-intact; type: cell-based; conditions: Homo sapiens
Method in brief: (§1)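 Readout: in-cell western detection of SDMA. Cells: HAP1 expressing endogenous MTAP and an MTAP-null HAP1 counterpart. Output: IC50.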

[2] = system: HAP1 MTAP-deleted cell line; experiment: Viability assay, MTAP-deleted cell line; type: cell-based; conditions: Homo sapiens
From the text: Table 1 additionally indicates IC50 values in a viability assay for the MTAP-deleted cell line (column 10), indicating the effect of treatment with compound on cell survival.

[3] = system: HAP1 MTAP-deleted cell line; experiment: SDMA in-cell western assay, HAP1 MTAP-deleted; type: cell-based; conditions: for IC50: Homo sapiens; for MTAP intact/deleted ratio: SDMA in-cell western
Method in brief: as §1

PRMT5 [4] = molecular target: T1, PRMT5 (Homo sapiens, UniProt O14744); experiment: PRMT5 biochemical IC50 assay with no cofactor
T1 construct: purchased Viva (custom protein)
T1 sequence (O14744 whole entry): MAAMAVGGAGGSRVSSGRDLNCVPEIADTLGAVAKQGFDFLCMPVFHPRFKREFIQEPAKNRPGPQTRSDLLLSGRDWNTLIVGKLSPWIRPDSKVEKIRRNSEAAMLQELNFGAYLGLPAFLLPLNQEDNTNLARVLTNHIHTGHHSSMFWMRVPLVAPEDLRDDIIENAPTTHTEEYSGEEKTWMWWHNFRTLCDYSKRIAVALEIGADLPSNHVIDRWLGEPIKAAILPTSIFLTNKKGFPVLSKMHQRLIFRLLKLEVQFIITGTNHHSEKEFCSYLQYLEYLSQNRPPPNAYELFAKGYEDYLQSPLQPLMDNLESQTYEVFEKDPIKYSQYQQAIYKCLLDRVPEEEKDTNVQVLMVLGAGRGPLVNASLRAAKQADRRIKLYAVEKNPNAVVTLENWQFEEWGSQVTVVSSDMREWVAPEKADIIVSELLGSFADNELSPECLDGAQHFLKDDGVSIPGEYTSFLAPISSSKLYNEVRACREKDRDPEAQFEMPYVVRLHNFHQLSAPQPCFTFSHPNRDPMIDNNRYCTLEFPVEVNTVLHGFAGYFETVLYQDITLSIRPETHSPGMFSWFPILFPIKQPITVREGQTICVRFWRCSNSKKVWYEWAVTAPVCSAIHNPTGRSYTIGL
T1 sequence (Q9BQA1 whole entry partner): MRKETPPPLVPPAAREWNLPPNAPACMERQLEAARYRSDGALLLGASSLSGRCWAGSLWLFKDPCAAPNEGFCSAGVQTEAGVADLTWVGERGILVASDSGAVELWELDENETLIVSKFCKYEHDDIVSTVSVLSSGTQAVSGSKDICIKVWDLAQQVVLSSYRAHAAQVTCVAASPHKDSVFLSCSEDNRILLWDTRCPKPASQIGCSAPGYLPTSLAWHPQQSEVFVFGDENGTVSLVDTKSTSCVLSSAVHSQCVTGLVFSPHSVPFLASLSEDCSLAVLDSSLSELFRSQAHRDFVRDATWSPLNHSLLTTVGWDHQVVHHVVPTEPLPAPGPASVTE
From the text: Table 1 indicates IC50 values (μM) against PRMT5 for exemplary compounds in the presence of SAM as cofactor, with no cofactor, and with MTA as cofactor, respectively (columns 4-6). […] Ki values can be calculated from the IC50 values as described in the Examples section. As detailed in the Examples section, for the assay performed in the presence of SAM, IC50=Ki×1.5 (Ki=IC50/1.5).

PRMT5 [5] = molecular target: T1, PRMT5; experiment: PRMT5 biochemical IC50 assay with MTA as cofactor
PRMT5 [6] = molecular target: T1, PRMT5; experiment: PRMT5 biochemical IC50 assay with SAM as cofactor
[7] = HAP1, SDMA in-cell western, HAP1 MTAP-intact, read-out: MTAP HAP1 intact IC50
[8] = HAP1, viability assay, MTAP-deleted cell line, read-out: HAP1 MTAP deleted viability
[9] = HAP1, SDMA in-cell western, HAP1 MTAP-deleted, read-out: HAP 1 MTAP deleted IC50
[10] = IC50 ratio HAP1 MTAP-intact / HAP1 MTAP-deleted
[11] = PRMT5, no cofactor, read-out: No Cofactor/rel IC50
[12] = PRMT5, MTA as cofactor, read-out: MTA IC50
[13] = PRMT5, SAM as cofactor, read-out: SAM IC50
[14] = HAP1, SDMA in-cell western, HAP1 MTAP-deleted, read-out: HAP1 MTAP deleted IC50
[15] = IC50 ratio HAP1 MTAP-intact vs HAP1 MTAP-deleted

SMILES	IC50 [1, 7] [nM]	IC50 [3, 9] [nM]	IC50 (PRMT5 [4]; [11]) [nM]	IC50 (PRMT5 [5]; [12]) [nM]	IC50 (PRMT5 [6]; [13]) [nM]	IC50 [3, 14] [nM]	IC50 [2, 8] [nM]	MTAP intact/deleted ratio [3, 10]	MTAP intact/deleted ratio [3, 15]	IC50 ([1]; HAP1, read-out: MTAP HAP1 intact IC50) [nM]	IC50 ([2]; HAP1, read-out: HAP1 MTAP deleted viability) [nM]	IC50 ([3]; HAP1, read-out: HAP1 MTAP deleted IC50) [nM]	IC50 (PRMT5 [4]; No Cofactor/rel IC50, PRMT5, no cofactor) [nM]	IC50 (PRMT5 [5]; MTA IC50, PRMT5, MTA as cofactor) [nM]	IC50 (PRMT5 [6]; SAM IC50, PRMT5, SAM as cofactor) [nM]
CCc1cc(NC(=O)C(=O)N2C[C@@H](C)CC[C@@H]2c2ccc3sc(CN4CCOCC4)nc3c2)cnc1N [Compound 1092, N-(6-amino-5-ethylpyridin-3-yl)-2-((2R,5S)-5-methyl-2-(2-(morpholinomethyl)benzo[d]thiazol-5-yl)piperidin-1-yl)-2-oxoacetamide]	100 to 1000	–	< 50	< 50	50 to 500	< 100	< 1000	–	A (an IC50 ratio greater than or equal to 10 fold)	–	–	–	–	–	–
CC(=O)N1CCC(c2nc3cc([C@H]4CC[C@H](C)CN4C(=O)C(=O)Nc4cnc(N)c(C)c4)ccc3s2)CC1 [Compound 1093, 2-((2R,5S)-2-(2-(1-acetylpiperidin-4-yl)benzo[d]thiazol-5-yl)-5-methylpiperidin-1-yl)-N-(6-amino-5-methylpyridin-3-yl)-2-oxoacetamide]	< 100	–	< 50	< 50	< 50	< 100	< 1000	–	A (an IC50 ratio greater than or equal to 10 fold)	–	–	–	–	–	–
CCc1cc(NC(=O)C(=O)N2C[C@@H](C)CC[C@@H]2c2ccc3sc(CCN4CCCC4)nc3c2)cnc1N [Compound 1095, N-(6-amino-5-ethylpyridin-3-yl)-2-((2R,5S)-5-methyl-2-(2-(2-(pyrrolidin-1-yl)ethyl)benzo[d]thiazol-5-yl)piperidin-1-yl)-2-oxoacetamide]	< 100	–	< 50	< 50	< 50	< 100	< 1000	–	A (an IC50 ratio greater than or equal to 10 fold)	–	–	–	–	–	–
Cc1ncc(NC(=O)C(=O)N2C[C@@H](C)CC[C@@H]2c2ccc3sc(C4CCN(C)CC4)nc3c2)cc1Cl [Compound 1102, N-(5-chloro-6-methylpyridin-3-yl)-2-((2R,5S)-5-methyl-2-(2-(1-methylpiperidin-4-yl)benzo[d]thiazol-5-yl)piperidin-1-yl)-2-oxoacetamide]	100 to 1000	–	< 50	< 50	< 50	< 100	< 1000	–	A (an IC50 ratio greater than or equal to 10 fold)	–	–	–	–	–	–
CCc1cc(NC(=O)C(=O)N2C[C@@H](C)CC[C@@H]2c2ccc(NC3CCN(C)CC3)cc2)cnc1N [Compound 1112, N-(6-Amino-5-ethyl-3-pyridyl)-2-[(2R,5S)-5-methyl-2-[4-[(1-methyl-4-piperidyl)amino]phenyl]-1-piperidyl]-2-oxo-acetamide]	100 to 1000	–	< 50	< 50	50 to 500	< 100	< 1000	–	A (an IC50 ratio greater than or equal to 10 fold)	–	–	–	–	–	–
Cc1cc(NC(=O)C(=O)N2C[C@@H](C)CC[C@@H]2c2ccc3sc(C4CCN(CCF)CC4)nc3c2)cnc1N [Compound 1114, N-(6-amino-5-methylpyridin-3-yl)-2-((2R,5S)-2-(2-(1-(2-fluoroethyl)piperidin-4-yl)benzo[d]thiazol-5-yl)-5-methylpiperidin-1-yl)-2-oxoacetamide]	< 100	–	< 50	< 50	< 50	< 100	< 1000	–	A (an IC50 ratio greater than or equal to 10 fold)	–	–	–	–	–	–
CCc1cc(NC(=O)C(=O)N2C[C@@H](C)CC[C@@H]2c2ccc3sc(C4(OC)CCN(C)CC4)nc3c2)cnc1N [Compound 1118, N-(6-amino-5-ethylpyridin-3-yl)-2-((2R,5S)-2-(2-(4-methoxy-1-methylpiperidin-4-yl)benzo[d]thiazol-5-yl)-5-methylpiperidin-1-yl)-2-oxoacetamide]	–	–	–	–	–	–	–	–	A (an IC50 ratio greater than or equal to 10 fold)	< 100	< 1000	< 100	< 50	< 50	< 50
Cc1cc(NC(=O)C(=O)N2C[C@@H](C)CC[C@@H]2c2ccc3sc(C4CN(C)C4)nc3c2)cnc1C [Compound 1123, N-(5,6-dimethylpyridin-3-yl)-2-((2R,5S)-5-methyl-2-(2-(1-methylazetidin-3-yl)benzo[d]thiazol-5-yl)piperidin-1-yl)-2-oxoacetamide]	100 to 1000	–	< 50	< 50	< 50	< 100	< 1000	–	A (an IC50 ratio greater than or equal to 10 fold)	–	–	–	–	–	–

The next lines start with results.

IC50 [1, 7] [nM]	IC50 [3, 9] [nM]	IC50 (PRMT5 [4]; [11]) [nM]	IC50 (PRMT5 [5]; [12]) [nM]	IC50 (PRMT5 [6]; [13]) [nM]	IC50 [3, 14] [nM]	SMILES	IC50 [2, 8] [nM]	MTAP intact/deleted ratio [3, 10]	MTAP intact/deleted ratio [3, 15]	IC50 ([1]; HAP1, read-out: MTAP HAP1 intact IC50) [nM]	IC50 ([2]; HAP1, read-out: HAP1 MTAP deleted viability) [nM]	IC50 ([3]; HAP1, read-out: HAP1 MTAP deleted IC50) [nM]	IC50 (PRMT5 [4]; No Cofactor/rel IC50, PRMT5, no cofactor) [nM]	IC50 (PRMT5 [5]; MTA IC50, PRMT5, MTA as cofactor) [nM]	IC50 (PRMT5 [6]; SAM IC50, PRMT5, SAM as cofactor) [nM]
> 1000	100 to 1000	50 to 500	< 50	50 to 500	–	C[C@H]1CC[C@H](c2ccc(F)cc2)N(C(=O)C(=O)Nc2cnc(N)c(OC(F)F)c2)C1 [Compound 1026, N-[6-amino-5-(difluoromethoxy)-3-pyridyl]-2-[(2R,5S)-2-(4-fluorophenyl)-5-methyl-1-piperidyl]-2-oxo-acetamide]	1000 to 10000	A (an IC50 ratio greater than or equal to 10 fold)	–	–	–	–	–	–	–
100 to 1000	100 to 1000	50 to 500	50 to 500	50 to 500	–	C[C@H]1CC[C@H](c2ccc(F)cc2)N(C(=O)C(=O)Nc2cnc(OC(F)(F)F)c(C(N)=O)c2)C1 [Compound 1039, 5-[[2-[(2R,5S)-2-(4-fluorophenyl)-5-methyl-1-piperidyl]-2-oxo-acetyl]amino]-2-(trifluoromethoxy)pyridine-3-carboxamide]	1000 to 10000	C (an IC50 ratio of less than 3 fold)	–	–	–	–	–	–	–
100 to 1000	–	< 50	< 50	< 50	< 100	CCc1cc(NC(=O)C(=O)N2C[C@@H](C)CC[C@@H]2c2cccc([C@@H]3CCCN(C)C3)c2)cnc1N [Compound 1090, N-(6-amino-5-ethyl-3-pyridyl)-2-oxo-2-[(2R,5S)-5-methyl-2-[3-[(3S)-1-methyl-3-piperidyl]phenyl]-1-piperidyl]acetamide]	< 1000	–	A (an IC50 ratio greater than or equal to 10 fold)	–	–	–	–	–	–
100 to 1000	–	< 50	< 50	< 50	< 100	CCc1cc(NC(=O)C(=O)N2C[C@@H](C)CC[C@@H]2c2ccc3sc(C4CCN(C)CC4)nc3c2)cnc1C [Compound 1100, N-(5-ethyl-6-methylpyridin-3-yl)-2-((2R,5S)-5-methyl-2-(2-(1-methylpiperidin-4-yl)benzo[d]thiazol-5-yl)piperidin-1-yl)-2-oxoacetamide]	< 1000	–	A (an IC50 ratio greater than or equal to 10 fold)	–	–	–	–	–	–
< 100	–	< 50	< 50	< 50	< 100	CCc1cc(NC(=O)C(=O)N2C[C@@H](C)CC[C@@H]2c2ccc3sc([C@H]4C[C@H](N(C)C)C4)nc3c2)cnc1N [Compound 1101, N-(6-amino-5-ethylpyridin-3-yl)-2-((2R,5S)-2-(2-(3-(dimethylamino)cyclobutyl)benzo[d]thiazol-5-yl)-5-methylpiperidin-1-yl)-2-oxoacetamide]	< 1000	–	A (an IC50 ratio greater than or equal to 10 fold)	–	–	–	–	–	–
100 to 1000	–	< 50	< 50	< 50	< 100	C[C@H]1CC[C@H](c2ccc3sc(C4CCN(C)CC4)nc3c2)N(C(=O)C(=O)Nc2cnc(N)c(C(F)(F)F)c2)C1 [Compound 1117, N-(6-amino-5-(trifluoromethyl)pyridin-3-yl)-2-((2R,5S)-5-methyl-2-(2-(1-methylpiperidin-4-yl)benzo[d]thiazol-5-yl)piperidin-1-yl)-2-oxoacetamide]	< 1000	–	A (an IC50 ratio greater than or equal to 10 fold)	–	–	–	–	–	–
< 100	–	< 50	< 50	50 to 500	< 100	CCc1cc(NC(=O)C(=O)N2C[C@@H](C)CC[C@@H]2c2ccc3sc(C4CCN(CCC(F)(F)F)CC4)nc3c2)cnc1N [Compound 1124, N-(6-amino-5-ethylpyridin-3-yl)-2-((2R,5S)-5-methyl-2-(2-(1-(3,3,3-trifluoropropyl)piperidin-4-yl)benzo[d]thiazol-5-yl)piperidin-1-yl)-2-oxoacetamide]	< 1000	–	B (an IC50 ratio greater than or equal to 3 fold but lower than 10 fold)	–	–	–	–	–	–
